How the values were obtained:
Heliothis viresens = assay: In vivo protective test on Heliothis virescens (HELIVI); parameters: species or system Heliotis virescens; settings: soybean leaf sections, eggs
Method: In Vivo Protective Test on Heliothis viresens (HELIVI)
Solvent: 78 parts by weight acetone
• 1.5 parts by weight dimethylformamide Wetting agent: 0.5 parts by weight alkylarylpolyglcolether
To produce a suitable preparation of active compound, 1 part by weight of active compound is mixed with the stated amount of solvent and emulsifier, and the concentrate is diluted with emulsifier-containing water to the desired concentration.
Soybean (Glycine max.) leaf sections are sprayed with a preparation of the active ingredient of the desired concentration. Once dry, the leaf sections are infested with eggs of cotton bollworm (Heliotis virescens).
After the specified period of time, mortality in % is determined. 100% means that all eggs have been killed and 0% means that none of the eggs have been killed.

Aedes aegypti larvae = assay: In vivo protective test on Aedes aegypti (AEDSAE U)
Method: In Vivo Protective Test on Aedes Aegypti (AEDSAE U)
Solvent: 1% N-methylpyrrolidone (NMP)
• 1% diacetonealcohol Dye: brillantsulfoflavin for staining water
To produce a suitable preparation of the active compound, the active compound is mixed with the stated amount of solvent, and the concentrate is diluted with staining water to the desired concentration.
Aedes aegypti larvae are pipetted with a preparation of active ingredient of the desired concentration.
After the specified period of time, mortality in % is determined. 100% means that all larvae have been killed, a 0% means that none of the larvae have been killed.

[1] = logP by HPLC on reversed-phase column (EEC Directive 79/831 Annex V.A8); format: physicochemical; settings: HPLC, C18, 40° C., 0.1% aqueous formic acid and acetonitrile
Method: Temperature: 40° C.; Mobile phases: 0.1% aqueous formic acid and acetonitrile; linear gradient from 10% acetonitrile to 90% acetonitrile.
Calibration was carried out using unbranched alkan-2-ones (comprising 3 to 16 carbon atoms) with known logP values (determination of the logP values by the retention times using linear interpolation between two successive alkanones).

| SMILES | activity (mortality) (Heliothis viresens) | activity (mortality) (Aedes aegypti larvae) | log P [1] |
| --- | --- | --- | --- |
| CCN(C)C=Nc1cc(C)c(OC(C)c2ccc(F)cc2)cc1C (stereo not drawn) [Compound 6] | good activity | good activity | 2.08 |
| CCN(C)C=Nc1cc(C)c(OCc2cccc(Cl)c2)cc1C [Compound 7] | good activity | good activity | 2.13 |
